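All cell lines were grown in 96-well plates and treated with compound for 48 hours. Abbreviation: GI50, concentration required for 50% inhibition of growth.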 Calls of active or inactive are those of the source. Rule as the data show it: active = GI50 up to about 1.1 µM and inactive = higher.
Legend:
Assay in all cases: NCI-60 cell line screen, 48 h
SF-295 = tested on: SF-295
SK-MEL-2 = tested on: SK-MEL-2
MOLT-4 = tested on: MOLT-4
TK-10 = tested on: TK-10
SR = tested on: SR
UACC-257 = tested on: UACC-257
SN12C = tested on: SN12C
ACHN = tested on: ACHN
UACC-62 = tested on: UACC-62
Malme-3M = tested on: Malme-3M
SNB-19 = tested on: SNB-19
EKVX = tested on: EKVX
HL-60 = tested on: HL-60
NCI-H522 = tested on: NCI-H522
HOP-62 = tested on: HOP-62
HCT-116 = tested on: HCT-116
K562 = tested on: K562
KM12 = tested on: KM12
T47D = tested on: T47D

SMILES | GI50 (SF-295) | GI50 (SK-MEL-2) | GI50 (MOLT-4) | GI50 (TK-10) | GI50 (SR) | GI50 (UACC-257) | GI50 (SN12C) | GI50 (ACHN) | GI50 (UACC-62) | GI50 (Malme-3M) | GI50 (SNB-19) | GI50 (EKVX) | GI50 (HL-60) | GI50 (NCI-H522) | GI50 (HOP-62) | GI50 (HCT-116) | GI50 (K562) | GI50 (KM12) | GI50 (T47D)
Cc1cc2c(C)n(Cc3ccc(Cl)cc3Cl)nc2c(C#N)c1C | 18.2 µM (inactive) | > 61.4 µM (inactive) | > 100 µM (inactive) | 23.7 µM (inactive) | > 100 µM (inactive) | > 100 µM (inactive) | 53.3 µM (inactive) | 49 µM (inactive) | > 100 µM (inactive) | 24.9 µM (inactive) | 15.7 µM (inactive) | 57.1 µM (inactive) | > 100 µM (inactive) | 38.5 µM (inactive) | 20 µM (inactive) | 29.8 µM (inactive) | > 100 µM (inactive) | > 100 µM (inactive) | –
COCn1cnc2c(=O)n(-c3ccc(C)cc3)c(=S)n(-c3ccc(C)cc3)c21 | > 100 µM (inactive) | > 100 µM (inactive) | > 100 µM (inactive) | > 100 µM (inactive) | > 100 µM (inactive) | > 100 µM (inactive) | > 100 µM (inactive) | > 100 µM (inactive) | > 100 µM (inactive) | > 100 µM (inactive) | > 100 µM (inactive) | > 100 µM (inactive) | > 100 µM (inactive) | > 100 µM (inactive) | > 100 µM (inactive) | > 100 µM (inactive) | > 100 µM (inactive) | > 100 µM (inactive) | > 100 µM (inactive)
CCOC(=O)c1c(NC(=O)OC)c(C#N)c2n1CCCCC2 | > 100 µM (inactive) | > 100 µM (inactive) | 45.1 µM (inactive) | > 100 µM (inactive) | > 100 µM (inactive) | > 100 µM (inactive) | – | > 100 µM (inactive) | > 100 µM (inactive) | – | > 100 µM (inactive) | > 100 µM (inactive) | > 100 µM (inactive) | – | > 100 µM (inactive) | > 100 µM (inactive) | > 100 µM (inactive) | > 100 µM (inactive) | > 100 µM (inactive)
CC(C)Oc1cccc(N2C(NCCc3c[nH]c4ccccc34)=Nc3ccncc3S2(=O)=O)c1 | 20.7 µM (inactive) | 20.8 µM (inactive) | 3.94 µM (inactive) | 19.2 µM (inactive) | 3.26 µM (inactive) | 9.53 µM (inactive) | > 100 µM (inactive) | 35.5 µM (inactive) | 31 µM (inactive) | 32.4 µM (inactive) | > 100 µM (inactive) | 72.8 µM (inactive) | 3.93 µM (inactive) | 7.01 µM (inactive) | > 100 µM (inactive) | 6.71 µM (inactive) | 3.82 µM (inactive) | 30.5 µM (inactive) | 7.21 µM (inactive)
Cc1c(/C=N\NC(=S)N2CCN(C(=S)N/N=C\c3c(C)n(C)n(-c4ccccc4)c3=O)CC2)c(=O)n(-c2ccccc2)n1C | 28.4 µM (inactive) | 13.1 µM (inactive) | 37.4 µM (inactive) | 5.7 µM (inactive) | 47.9 µM (inactive) | 26.8 µM (inactive) | – | 21.2 µM (inactive) | 32.9 µM (inactive) | 72.4 µM (inactive) | 47.5 µM (inactive) | 71.6 µM (inactive) | – | 60.7 µM (inactive) | 37.2 µM (inactive) | 49.5 µM (inactive) | – | 69.7 µM (inactive) | 36.1 µM (inactive)
O=S(=O)(c1ccc(NC(=S)N/N=C/c2ccccc2O)cc1)N1CCCCC1 | 0.0656 µM (active) | 0.459 µM (active) | – | < 0.0457 µM (active) | – | 0.735 µM (active) | – | < 0.01 µM (active) | < 0.01 µM (active) | 0.181 µM (active) | 0.879 µM (active) | 1.29 µM (inactive) | – | 1.61 µM (inactive) | 0.114 µM (active) | – | 0.341 µM (active) | – | 0.419 µM (active)
C/C(=C\COP(=O)(O)OP(=O)(O)O)CC/C=C(\C)CNc1ccc([N+](=O)[O-])cc1 | > 100 µM (inactive) | > 100 µM (inactive) | > 100 µM (inactive) | > 100 µM (inactive) | > 100 µM (inactive) | 71.8 µM (inactive) | > 100 µM (inactive) | > 100 µM (inactive) | > 100 µM (inactive) | > 100 µM (inactive) | > 100 µM (inactive) | > 100 µM (inactive) | > 100 µM (inactive) | > 100 µM (inactive) | > 100 µM (inactive) | > 100 µM (inactive) | > 100 µM (inactive) | > 100 µM (inactive) | > 100 µM (inactive)
Oc1nc2cc(Cl)ccc2nc1/C(=N\Nc1ccccc1)C(O)c1ccc(Cl)c(Cl)c1 (stereo not drawn) | > 100 µM (inactive) | > 100 µM (inactive) | > 100 µM (inactive) | > 100 µM (inactive) | > 100 µM (inactive) | > 100 µM (inactive) | 36.7 µM (inactive) | > 100 µM (inactive) | > 100 µM (inactive) | > 100 µM (inactive) | > 100 µM (inactive) | > 100 µM (inactive) | > 100 µM (inactive) | > 100 µM (inactive) | > 100 µM (inactive) | > 100 µM (inactive) | > 100 µM (inactive) | > 100 µM (inactive) | –
